Reference: patent publication US20220023271A1, “COMPOSITION FOR PREVENTING OR TREATING CELLULAR SENESCENCE-RELATED DISEASES COMPRISING ZOTAROLIMUS AS ACTIVE INGREDIENT” (RESEARCH COOPERATION FOUNDATION OF YEUNGNAM UNIVERSITY, priority 2018, published 2022)

Test system: peritoneal fibrosis induced by CHG
Assay: Peritoneal fibrosis induced by chlorhexidine gluconate (CHG) in mice
Assay type: in vivo, C57BL/6J mice
Conditions: i.p. at 2-day intervals from 9th day; vs DMSO group
Experimental: Animal experiments were conducted with the approval of the Animal Experimental Ethics Committee of Yeungnam University College of Medicine (YUMC-AEC2018-033). Peritoneal fibrosis mice experiments were performed using a model of peritoneal fibrosis induced by chlorhexidine gluconate (CHG) (Yoshio Y et al., Kidney international. 2004).
From the 9th day, 2.5 μl of 10 mM zotarolimus (Zota group) or 2.5 μl of DMSO (DMSO group) was diluted in 100 μl phosphate buffer solution and intraperitoneally injected at intervals of 2 days.
As a negative control (NT group), 100 μl of a 15% ethanol phosphate buffer solution was injected intraperitoneally instead of a 0.1% CHG solution. On the 20th day, the mice were sacrificed, the peritoneal tissue was excised, and the tissue was fixed in 4% paraformaldehyde solution.
The tissue fixed in 10% formalin solution was embedded with paraffin and cut into 4 μm to prepare a tissue sample. After removing paraffin from the tissue sample, hematoxylin-eosin staining, trichrome staining, and PAS staining were performed.
The degree of fibrosis was measured by analyzing the degree of collagen staining using the i-Solution™ software program (IMT Inc., Canada) after trichrome staining and the degree of cell senescence in tissue samples was investigated by staining lipofuscin with Sudan black B (Viegas M S, et al., European journal of histochemistry: EJH. 2007). […]

CO[C@H]1C[C@@H]2CC[C@@H](C)[C@@](O)(O2)C(=O)C(=O)N2CCCC[C@H]2C(=O)O[C@H]([C@H](C)C[C@@H]2CC[C@H](n3cnnn3)[C@H](OC)C2)CC(=O)[C@H](C)/C=C(\C)[C@@H](O)[C@@H](OC)C(=O)[C@H](C)C[C@H](C)/C=C/C=C/C=C/1C [zotarolimus]
degree of fibrosis (peritoneal): decreased
thickness of the peritoneal mesothelial cell layer: significantly reduced
